Experimental data reported in patent US9895439B2, “Combined treatment with netrin-1 interfering drug and chemotherapeutic drug” (NETRIS PHARMA, priority 2012, dated 2018).
Numbered stars: 1 amine (or outer) side, 2 acyl side, 3 side chain; on linkers, the order of the positions; unused ones are H or OH. Bridge positions count the residues as written; N and C are the ends. Square brackets hold non-standard residues; d marks the D form. Peptide text beside a SMILES is read from it. I, II: the chains in the order shown. Actinocin(9to1) = Cc1c2oc3c(C)ccc(C(=O)[*:1])c3nc-2c(C(=O)[*:2])c(N)c1=O; NMeV = CN[C@H](C(=O)O)C(C)C; Sar = CNCC(=O)O

Columns and labels:
[1] = test system: DCC expression in panel of 15 cancer cell lines; details: drug at IC10, IC30, IC50 or ICMAX, 24 hours
[2] = test system: Netrin-1 gene expression in A549 lung cancer cell line; assay: Netrin-1 gene expression by quantitative RT-PCR in A549 cells; type: cell-based, human; details: 24 hours
A549 cells [3] = assay: DNA fragmentation in A549 cells; type: cell-based, human; details: A549 transfected with scramble siRNA (siCTRL), Doxorubicin 24 hours
Method: (§1) FIGS. 13-14: Netrin-1 silencing triggers apoptosis in combination with Doxorubicin treatment. A549 cells were transfected as in (FIGS. 10-12), and treated with the indicated Doxorubicin concentrations for 24 hours. […] DoxoR, Doxorubicin.

A549 cells [4] = assay: Caspase-3 activity assay in A549 cells; type: cell-based, human; details: A549 transfected with scramble siRNA (siCTRL), Doxorubicin 24 hours
Method: as §1

[5] = test system: UNC5B expression in panel of 15 cancer cell lines; details: drug at IC10, IC30, IC50 or ICMAX, 24 hours
[6] = test system: DCC gene expression in A549 cells; assay: Netrin-1 receptor gene expression in A549 cells: DCC; type: cell-based, human; details: A549 cells following Doxorubicin treatment
[7] = test system: UNC5A gene expression in A549 cells; assay: Netrin-1 receptor gene expression in A549 cells: UNC5A; type: cell-based, human; details: A549 cells following Doxorubicin treatment
[8] = test system: Netrin-1 protein in A549 cells; assay: Netrin-1 protein levels by western blotting in A549 cells; type: cell-based, human; details: A549, 1 μM and 2 μM Doxorubicin, 48 hours, normalized to β-actin
Method: For immunoblot analysis, cells were lysed by sonication in modified RIPA buffer (50 mM Tris-HCl, pH7.5, 150 mM NaCl, 1% NP-40, 0.5% sodium deoxycholate, 0.1% SDS, 1 mM EDTA, protease inhibitor cocktail and 5 mM DTT) and incubated 1 h at 4° C. Cellular debris were pelletted by centrifugation (10.000 g 15′ at 4° C.) and protein extracts (200 μg per lane) were loaded onto 10% SDS-polyacrylamide gels and blotted onto PVDF sheets (Millipore Corporation, Billerica, Mass., U.S.A.). Filters were blocked with 10% non-fat dried milk and 5% BSA in PBS/0.1% Tween 20 (PBS-T) over-night and then incubated for 2 h with rabbit polyclonal α-netrin-1 (dilution 1:500, clone H104, Santa Cruz Biotechnology, Santa Cruz, Calif., USA) and mouse monoclonal β-actin (Santa Cruz Biotechnologies) antibodies. After three washes with PBS-T, filters were incubated with the appropriate HRP-conjugated secondary antibody (1:10000, Jackson ImmunoResearch, Suffolk, UK) for 1 h. Detection was performed using West Dura Chemiluminescence System (Pierce, Rockford, Ill., U.S.A.).

A549 cells [9] = assay: Cell death rate by ToxiLight bioluminescent cytotoxicity assay in A549 cells; details: 48 hours; for Potentiation of Doxorubicin-induced cell death (toxilight): A549, 2 μg/mL fusion protein plus Doxorubicin
Method: Cell death rate (FIG. 10), measured by toxilight kit as described in materials and methods section, and cell survival (FIG. 11), was evaluated 48 hours after treatment. Results were normalized to control, untreated cells.
A549 cells were transfected with scramble siRNA (siCTRL), netrin-1-specific siRNA (siNet), UNC5B-specific siRNA (siUnc5B) and with a combination of netrin-1 and UNC5B-targeting siRNA. 24 hours after transfection, cells were treated with the indicated Doxorubicin concentrations for 48 hours, and cell death rate was measured by toxilight and normalized to control, untreated cells.
FIGS. 16-17: A549 cells were treated for 48 hours with the indicated Doxorubicin concentrations in presence or not of 2 μg/mL TRAP-netrin^DCC (FIG. 16) and TRAP-netrin^Unc5A (FIG. 17). […] Results were normalized to untreated cells. *, P<0.05; **, P<0.01; ***, P<0.001.
Cell death was evaluated by means of different methods. For total cell death assays, 5*10^3 cells per well were grown in 96-well plate in serum-poor medium and treated with Doxorubicin. 48 hours later, cell death was evaluated using the bioluminescent cytotoxicity assay ToxiLight (Lonza, Basel, Switzerland), according to manufacturer's instruction. […] Cell survival was measured by MTS assay (CellTiter 96 AQueous One Solution Cell Proliferation Assay, Promega) in 96-well plates. MTS assay was performed according to the manufacturer's procedures on 3*10^3 cells grown in serum-poor medium for 16 hours and then treated for 48 hours with the indicated Doxorubicin concentrations in serum-free medium.

[10] = test system: UNC5D gene expression in A549 cells; assay: Netrin-1 receptor gene expression in A549 cells: UNC5D; type: cell-based, human; details: A549 cells following Doxorubicin treatment
[11] = test system: UNC5D expression in panel of 15 cancer cell lines; details: drug at IC10, IC30, IC50 or ICMAX, 24 hours
[12] = test system: UNC5B gene expression in A549 cells; assay: Netrin-1 receptor gene expression in A549 cells: UNC5B; type: cell-based, human
[13] = test system: UNC5C gene expression in A549 cells; assay: Netrin-1 receptor gene expression in A549 cells: UNC5C; type: cell-based, human; details: A549 cells following Doxorubicin treatment
[14] = test system: A549 cells engrafted in nude mice; assay: A549 xenograft in athymic nude mice, tumor growth; type: in vivo; details: i.p. twice a week for two weeks, TRAP-netrin^UNC5A 20 mg/kg, Doxorubicin 2 mg/kg, alone or combined
Method: FIG. 22: Netrin-1 interfering potentiates Doxorubicin anti-cancer effect in a preclinical animal model. A549 cells were engrafted in seven-weeks old female athymic nude mice. Once tumors reached a 100 mm^3-volume, mice were treated intraperitoneally with TRAP-netrin^UNC5A (20 mg/kg), Doxorubicin (2 mg/kg) or with a combination of both drugs, twice a week for two weeks. As a control, mice were injected with PBS. Histogram represents tumor volume growth for each group as a function of days post-xenografts.
Seven-week-old (20-22 g body weight) female athymic nu/nu mice were obtained from Charles River animal facility. The mice were housed in sterilized filter-topped cages and maintained in a pathogen-free animal facility. A549 cells were implanted by s.c. injection of 10^7 cells in 200 μL of PBS into the right flank of the mice. Once tumors were established (V≈100 mm^3), mice were treated with netrin-1 interfering drugs and/or cytotoxic drugs for two weeks. Tumor sizes were measured with a caliper. The tumor volume was calculated with the formula v=0.5*(length*width^2). At the end of the treatment, tumors were harvested, weighted and were embedded in 7.5% gelatin—0.12M sucrose and sectioned into 20 μm slices.
We then assessed whether the in vitro effect seen above could be translated in vivo in a therapeutic perspective. […]

[15] = test system: Netrin-1 gene expression in H460 lung cancer cell line; assay: Netrin-1 gene expression by quantitative RT-PCR in H460 cells; details: H460, 2 μM Doxorubicin, 24 hours, normalized with GAPDH, compared to not-treated cells
A549 cells [16] = assay: Cell survival by MTS assay in A549 cells; details: 48 hours
Method: FIGS. 18-19: A549 cells were treated with PBS or 2 μg/mL TRAP-netrin^Unc5A, in presence of the indicated concentrations of 5-Fluorouracil (5-FU, FIG. 18) or Cisplatin (FIG. 19). 48 hours after co-treatment, cell survival was measured by MTS and normalized to untreated cells. *, P<0.05; **, P<0.01; ***, P<0.001.
Cell survival was measured by MTS assay (CellTiter 96 AQueous One Solution Cell Proliferation Assay, Promega) in 96-well plates.

MiaPacA cells = assay: Cell survival by MTS assay in MiaPacA cells; type: cell-based, human; details: 48 hours
[17] = test system: netrin-1 expressing tumor cells; assay: Death of netrin-1 expressing tumor cells in vitro (not shown); type: cell-based; details: data not shown

Molecule: O=c1[nH]cc(F)c(=O)[nH]1 [5FU, 5-Fluorouracil]
- cell lines with up-regulation of DCC [1]: 43%

Molecule: Cc1c2oc3c(C)ccc(C(=O)N[C@@H]4C(=O)N[C@H](C(C)C)C(=O)N5CCC[C@H]5C(=O)N(C)CC(=O)N(C)[C@@H](C(C)C)C(=O)O[C@@H]4C)c3nc-2c(C(=O)N[C@@H]2C(=O)N[C@H](C(C)C)C(=O)N3CCC[C@H]3C(=O)N(C)CC(=O)N(C)[C@@H](C(C)C)C(=O)O[C@@H]2C)c(N)c1=O [Actinomycin D] (I: T[dV]P[Sar][NMeV] / II: T[dV]P[Sar][NMeV]; ester I:1-I:C, II:1-II:C; linker I:N-II:N via Actinocin(9to1))
- Effect on Doxorubicin-mediated netrin-1 up-regulation ([2]; A549, 2 μM Doxorubicin plus Actinomycin D 100 μg/ml): fully prevents

Molecule: N.N.[Cl][Pt][Cl] [Cisplatin]
- cell lines with up-regulation of DCC [1]: 36%

Molecule: COc1cccc2c1C(=O)c1c(O)c3c(c(O)c1C2=O)C[C@@](O)(C(=O)CO)C[C@@H]3O[C@H]1C[C@H](N)[C@H](O)[C@H](C)O1 [Doxorubicin]
- netrin-1 mRNA level increase ([2]; A549, 2 μM Doxorubicin, normalized with GAPDH, compared to not-treated cells): 430 fold
- Apoptosis (DNA fragmentation) (A549 cells [3]): failed to induce apoptosis
- Apoptosis (active caspase-3) (A549 cells [4]): failed to induce apoptosis
- cell lines with up-regulation of UNC5B [5]: 80%
- DCC gene expression [6]: significantly up-regulated
- UNC5A gene expression [7]: significantly up-regulated
- Netrin-1 protein levels [8]: strongly accumulated
- Cell death rate and cell survival under Doxorubicin (A549 cells [9]; A549 scramble siRNA-transfected cells, increasing Doxorubicin concentrations): general resistance
- UNC5D gene expression [10]: non-significant variations
- cell lines with up-regulation of UNC5D [11]: 67%
- cell lines with up-regulation of DCC [1]: 87%
- UNC5B gene expression ([12]; A549 cells following Doxorubicin treatment, result in words): significantly up-regulated
- UNC5B receptor level increase ([12]; A549 cells treated with Doxorubicin): 44 folds
- UNC5C gene expression [13]: non-significant variations
- Tumor growth inhibition [14]: detectable but weak tumor growth inhibiting effect
- netrin-1 mRNA level increase [15]: 300 fold

Molecule: CC(=O)O[C@H]1C(=O)[C@@]2(C)[C@H]([C@H](OC(=O)c3ccccc3)[C@]3(O)C[C@H](OC(=O)[C@H](O)[C@@H](NC(=O)c4ccccc4)c4ccccc4)C(C)=C1C3(C)C)[C@]1(OC(C)=O)CO[C@@H]1C[C@@H]2O [Taxol, paclitaxel]
- cell lines with up-regulation of DCC [1]: 53%

Molecule: TRAP-netrin^UNC5A: two immunoglobin (Ig1-Ig2) domains of the UNC5A ectodomain fused to IgG1 Fc portion; SEQ ID NO: 1
- Potentiating effect on cell death, co-treatment with 5FU (cell survival by MTS) (A549 cells [16]; A549, 2 μg/mL fusion protein plus 5FU): Comparable potentiating effect on cell death
- Potentiating effect on cell death, co-treatment with Cisplatin (cell survival by MTS) (A549 cells [16]; A549, 2 μg/mL fusion protein plus Cisplatin): Comparable potentiating effect on cell death
- Cell death, co-treatment with 5FU (cell survival by MTS) (MiaPacA cells; 2 μg/mL fusion protein plus 5FU): potentiated cell death
- Cell death, co-treatment with Doxorubicin (cell survival by MTS) (MiaPacA cells; 2 μg/mL fusion protein plus Doxorubicin): potentiated cell death
- Death of netrin-1 expressing tumor cells in vitro [17]: trigger death of netrin-1 expressing tumor cells
- Potentiation of Doxorubicin-induced cell death (toxilight) (A549 cells [9]): strongly potentiate
- Tumor growth inhibition [14]: detectable but weak tumor growth inhibiting effect

B1: TRAP-netric^DCC: fifth fibronectin domain of DCC ectodomain fused to IgG1 Fc portion (protein)
chain: PPVGVQAVALTHDAVRVSWADNSVPKNQKTSEVRLYTVRWRTSFSASAKYKSEDTTSLSYTATGLKPNTMYEFSVMVTKNRRSSTWSMTAHATTYEA
modifications: left off: a dimerising Fc or GST
notes: fifth fibronectin domain of DCC ectodomain fused to IgG1 Fc portion
- Death of netrin-1 expressing tumor cells in vitro [17]: trigger death of netrin-1 expressing tumor cells
- Potentiation of Doxorubicin-induced cell death (toxilight) (A549 cells [9]): strongly potentiate
